Selectivity ratio, MIC and CC50 data for 20 compounds are collected here from ChEMBL document CHEMBL3286291, “Synthesis and biological evaluation of substituted 4,6-diarylpyrimidines and 3,5-diphenyl-4,5-dihydro-1H-pyrazoles as anti-tubercular agents” (Bioorg Med Chem Lett, 2014).

As a reminder, the MIC is the lowest concentration found to suppress growth. A lower MIC goes with greater potency. One may read the CC50 as the concentration that lowers cell viability or growth by half.

The nature of data set [1]: Selectivity index, ratio of CC50 for human THP1 cells to MIC for Mycobacterium tuberculosis H37Rv. It counts as toxicity, cell-based. Particulars: THP-1 cells, read-out: Selectivity Index.
Data set [2] deals with Mycobacterium tuberculosis. The data set can be described thus: Antitubercular activity against Mycobacterium tuberculosis H37Rv by microplate alamar blue assay. In kind it is functional. On the technique in general: Resazurin is reduced to fluorescent resorufin, in cell work by metabolically active cells.
The nature of data set [3]: Cytotoxicity against human THP1 cells by MTT assay. Particulars: THP-1 cells. In kind it is cell-based.

On to `COc1cc(C2CC(c3ccc(Cl)cc3)=NN2C(C)=O)cc(OC)c1OC` (stereo unspecified), for which the selectivity ratio in data set [1] was 8. In data set [2], this compound gave an MIC of 12.5 µM. Moreover, in data set [3], the CC50 was found to be 100 µM.
The matching figures for `COc1cc(C2CC(c3ccc(Br)cc3)=NN2C(C)=O)cc(OC)c1OC` (stereo unspecified): 8, 12.5 µM and 100 µM.
Turning to `COc1ccc(C2=NN(C(C)=O)C(c3cc(OC)c(OC)c(OC)c3)C2)cc1` (stereo unspecified), the selectivity ratio in data set [1] came out at 4. This compound showed an MIC in data set [2] of 50 µM. In data set [3], this compound had a CC50 of 200 µM.
Consider `CC1=NN(C(=O)c2cc(-c3ccc(Cl)cc3)n[nH]2)C(=O)/C1=N/Nc1cccc(F)c1`, for which the MIC in data set [2] turned out to be 0.35 µg/mL.
Still for that read-out and setting: as for `CCSc1nc(Cl)c(C#N)c(-c2ccc(F)cc2F)n1`, the figure is 0.78 µg/mL.
In the case of `COc1ccc(-c2cc(-c3cc(OC)c(OC)c(OC)c3)nc(N)n2)cc1`, the selectivity ratio in data set [1] was found to be 4. In data set [2], it took 25 µM to inhibit growth (MIC). The compound also displayed a CC50 in data set [3] of 100 µM.
With `COc1cc(-c2cc(-c3ccc(Br)cc3)nc(N)n2)cc(OC)c1OC`, in data set [2], the MIC was 50 µM. In addition, in data set [3], half-maximal cytotoxicity (CC50) was put at 100 µM.
In the case of `COc1cc(-c2cc(-c3ccc(Cl)cc3)nc(N)n2)cc(OC)c1OC`, the minimum inhibitory concentration (MIC) in data set [2] stood at 50 µM.
`COc1cc(-c2cc(-c3ccc(F)cc3)nc(N)n2)cc(OC)c1OC` returned an MIC in data set [2] of 50 µM.
Turning to `COc1cc(-c2cc(-c3cc(OC)c(OC)c(OC)c3)nc(N)n2)cc(OC)c1OC`, in data set [2], the MIC was above 100 µM.
For the compound `COc1cc(-c2cc(-c3ccc4c(c3)OCO4)nc(N)n2)cc(OC)c1OC`, the MIC in data set [2] was above 100 µM. In data set [3], this compound had a CC50 of 200 µM.
The compound `COc1ccc(-c2cc(-c3ccc4c(c3)OCO4)nc(N)n2)cc1` returned an MIC in data set [2] above 100 µM.
`COc1ccc(-c2cc(-c3cc(OC)c(OC)c(OC)c3)nc(-c3cccnc3)n2)cc1`: the MIC in data set [2] is 100 µM. For the same compound, in data set [3], half-maximal cytotoxicity (CC50) was put at 200 µM.
The matching figures for `COc1ccc(-c2cc(-c3cc(OC)c(OC)c(OC)c3)nc(-c3ccccn3)n2)cc1`: 25 µM and 50 µM.
In turn, `COc1ccc(-c2cc(-c3cc(OC)c(OC)c(OC)c3)nc(-c3ccncc3)n2)cc1` displayed an MIC in data set [2] above 100 µM.
The compound `COc1cc(-c2cc(-c3cc(OC)c(OC)c(OC)c3)nc(-c3ccncc3)n2)cc(OC)c1OC` showed an MIC in data set [2] above 100 µM.
On to `COc1cc(-c2cc(-c3ccc4c(c3)OCO4)nc(-c3ccncc3)n2)cc(OC)c1OC`, for which the MIC in data set [2] was above 100 µM. The compound also had a CC50 in data set [3] of 400 µM.
With `COc1cc(C2=NN(C(C)=O)C(c3cc(OC)c(OC)c(OC)c3)C2)cc(OC)c1OC` (stereo unspecified), in data set [2], the MIC is above 100 µM. The CC50 in data set [3] stood at 200 µM.
In data set [2], `COc1cc(C2CC(c3ccc4c(c3)OCO4)=NN2C(C)=O)cc(OC)c1OC` (stereo unspecified) returned an MIC of 100 µM. The CC50 in data set [3] stood at 200 µM.
Taken in the same sequence, the figures for `COc1ccc(C2CC(c3ccc4c(c3)OCO4)=NN2C(C)=O)cc1` (stereo unspecified) were 100 µM and 200 µM.
